Assay results reported in patent US10508085B2, “Compounds and methods for IDO and TDO modulation, and indications therefor” (Plexxikon Inc., priority 2016, dated 2019).
Read-outs that look alike come from different tables or passages of the source.

Experiments:
[1] = target: T1, human IDO (IDO1-expressing HEK293 cells) (Homo sapiens, UniProt P14902); test: Cell based kynurenine assay, IDO1-expressing HEK293 cell clones; conditions: IDO1-expressing HEK293 cells, geometric mean, read-out: HEK293 IDO1 Kynurenine GMean IC50 (μM) (Cellular Assay)
T1 construct: expressed in transfected cells
T1 sequence (P14902 whole entry): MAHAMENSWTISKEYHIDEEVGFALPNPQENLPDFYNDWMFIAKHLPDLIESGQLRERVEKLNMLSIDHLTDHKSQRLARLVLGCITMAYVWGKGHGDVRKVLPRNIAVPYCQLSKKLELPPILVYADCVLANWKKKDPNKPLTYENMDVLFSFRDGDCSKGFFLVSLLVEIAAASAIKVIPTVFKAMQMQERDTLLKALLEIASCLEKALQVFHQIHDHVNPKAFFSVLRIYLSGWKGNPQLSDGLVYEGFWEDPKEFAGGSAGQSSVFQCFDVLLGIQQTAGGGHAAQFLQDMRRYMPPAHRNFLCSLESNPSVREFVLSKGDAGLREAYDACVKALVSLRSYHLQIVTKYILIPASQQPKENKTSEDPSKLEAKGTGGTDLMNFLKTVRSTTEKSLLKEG
Method in brief: (§1)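 Supernatant kynurenine was measured after 24 h exposure of stably transfected HEK293 cells (human IDO1 or TDO, 2.5×10^4/well) to serially diluted compound. Percent inhibition used 0.2% DMSO cell wells as high and media-only wells as low controls; IC50 fitted by nonlinear regression.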

[2] = target: T2, human TDO (TDO-expressing HEK293 cells) (Homo sapiens, UniProt P48775); test: Cell based kynurenine assay, TDO-expressing HEK293 cell clones; conditions: TDO-expressing HEK293 cells, geometric mean, read-out: HEK293 TDO Kynurenine GMean IC50 (μM) (Cellular Assay)
T2 construct: expressed in transfected cells
T2 sequence (P48775 whole entry): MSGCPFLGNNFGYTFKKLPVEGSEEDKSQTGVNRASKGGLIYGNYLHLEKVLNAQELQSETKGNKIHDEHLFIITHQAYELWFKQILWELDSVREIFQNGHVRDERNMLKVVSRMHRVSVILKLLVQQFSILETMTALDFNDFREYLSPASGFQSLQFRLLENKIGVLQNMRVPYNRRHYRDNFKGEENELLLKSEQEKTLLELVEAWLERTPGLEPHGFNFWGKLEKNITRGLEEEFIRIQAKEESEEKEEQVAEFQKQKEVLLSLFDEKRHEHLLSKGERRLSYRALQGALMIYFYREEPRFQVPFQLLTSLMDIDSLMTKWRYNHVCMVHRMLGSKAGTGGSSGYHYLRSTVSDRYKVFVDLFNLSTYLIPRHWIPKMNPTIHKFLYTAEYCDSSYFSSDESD
Method in brief: as §1

[3] = target: T3, Human Tryptophan 2,3-dioxygenase (TDO) (Homo sapiens, UniProt P48775); test: Human TDO enzymatic assay (kynurenine level); type: biochemical; conditions: 1 nM TDO, 350 μM L-Trp; geometric mean; read-out: TDO GMean: IC50 (μM) (Biochemical Assay)
T3 construct: His tag (N); made in house; host or cells: E. coli
T3 sequence (P48775 whole entry): as above
Method in brief: (§2)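 IDO conditions: 6 nM His-IDO, 10 μM L-Trp, 5 μM methylene blue, 20 min, RT. TDO conditions: 1 nM His-TDO, 350 μM L-Trp, 0.4 μM methylene blue, 70 min, RT. Both used pH 6.5 phosphate plus ascorbate/catalase, TCA stop at 50° C, kynurenine readout, nonlinear-regression IC50.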

[4] = target: T4, Human Indoleamine 2,3-dioxygenase (IDO) (Homo sapiens, UniProt P14902); test: Human IDO enzymatic assay (kynurenine level); type: biochemical; conditions: 6 nM IDO, 10 μM L-Trp; geometric mean; read-out: IDO1 GMean: IC50 (μM) (Biochemical Assay)
T4 construct: His tag (N); made in house; host or cells: E. coli
T4 sequence (P14902 whole entry): as the sequence (P14902 whole entry) above
Method in brief: as §2

Row | SMILES | IC50 ([1]; 24 hours) [µM] | IC50 ([2]; 24 hours) [µM] | IC50 [3] [µM] | IC50 [4] [µM] | IC50 ([1]; 24 hours incubation) [µM] | IC50 ([2]; 24 hours incubation) [µM]
1 | CC(C)(C1CCN(C(=O)C2CCC2)CC1)C(O)c1cc(Cl)cc2cn[nH]c12 (centres unmarked) [Compound P-0412, (4-(1-(5-chloro-1H-indazol-7-yl)-1-hydroxy-2-methylpropan-2-yl)piperidin-1-yl)(cyclobutyl) methanone] | 0.0001 to 10 | 0.0001 to 10 | 0.0001 to 10 | 0.0001 to 10 | – | –
2 | OC(c1cc(Cl)cc2cn[nH]c12)C1CC2(CCC2)C1 (centres unmarked) [Compound P-0195, (5-chloro-1H-indazol-7-yl)(spiro[3.3]heptan-2-yl)methanol] | – | – | 0.0001 to 10 | 0.0001 to 10 | 0.0001 to 10 | 0.0001 to 10
3 | OC(c1c(F)c(Cl)c(F)c2cn[nH]c12)C1CCC1 (centres unmarked) [Compound P-0246, (5-chloro-4,6-difluoro-1H-indazol-7-yl)(cyclobutyl)methanol] | – | – | 0.0001 to 10 | 0.0001 to 10 | 0.0001 to 10 | 0.0001 to 10
4 | COC(=O)N1CC2CCC(C1)C2CC(O)c1cc(Cl)cc2cn[nH]c12 (centres unmarked) [Compound P-0329, methyl 8-(2-(5-chloro-1H-indazol-7-yl)-2-hydroxyethyl)-3-azabicyclo [3.2.1]octane-3-carboxylate] | – | – | 0.0001 to 10 | 0.0001 to 10 | 0.0001 to 10 | 0.0001 to 10
5 | OC(c1cc(Cl)cc2cn[nH]c12)C12CCC(F)(CC1)CC2 (centres unmarked) [Compound P-0227, (5-chloro-1H-indazol-7-yl)(4-fluorobicyclo[2.2.2]octan-1-yl)methanol] | – | – | 0.0001 to 10 | 0.0001 to 10 | 0.0001 to 10 | 0.0001 to 10
6 | CN(C)S(=O)(=O)N1CCC(C(C)(C)C(O)c2cc(Cl)cc3cn[nH]c23)CC1 (centres unmarked) [Compound P-0308, 4-(1-(5-chloro-1H-indazol-7-yl)-1-hydroxy-2-methylpropan-2-yl)-N,N-dimethylpiperidine-1-sulfonamide] | – | – | 0.0001 to 10 | 0.0001 to 10 | 0.0001 to 10 | 0.0001 to 10
7 | O=C(CC1CCOCC1)N1CCC(C(F)(F)C(O)c2cc(Cl)cc3cn[nH]c23)CC1 (centres unmarked) [Compound P-0480, 1-(4-(2-(5-chloro-1H-indazol-7-yl)-1,1-difluoro-2-hydroxyethyl)piperidin-1-yl)-2-(tetrahydro-2H-pyran-4-yl)ethan-1-one] | 0.0001 to 10 | 0.0001 to 10 | 0.0001 to 10 | 0.0001 to 10 | – | –
8 | CC(C)(C1CCN(C(=O)Nc2ccccc2C#N)CC1)C(O)c1cc(Cl)cc2cn[nH]c12 (centres unmarked) [Compound P-0180, 4-(1-(5-chloro-1H-indazol-7-yl)-1-hydroxy-2-methylpropan-2-yl)-N-(2-cyanophenyl)piperidine-1-carboxamide] | – | – | 0.0001 to 10 | 0.0001 to 10 | 0.0001 to 10 | 0.0001 to 10
9 | CC(C)(C1CCN(C(=O)Nc2ccnc(N3CCOCC3)c2)CC1)C(O)c1cc(Cl)cc2cn[nH]c12 (centres unmarked) [Compound P-0390, 4-(1-(5-chloro-1H-indazol-7-yl)-1-hydroxy-2-methylpropan-2-yl)-N-(2-morpholinopyridin-4-yl)piperidine-1-carboxamide] | – | – | 0.0001 to 10 | 0.0001 to 10 | 0.0001 to 10 | 0.0001 to 10
10 | OC(c1cccc2cncn12)C1(F)CCC(F)(F)CC1 (centres unmarked) [Compound P-0062, imidazo[1,5-a]pyridin-5-yl(1,4,4-trifluorocyclohexyl)methanol] | – | – | 0.0001 to 10 | 0.0001 to 10 | > 10 | > 10
11 | OC1(c2cc(Cl)cc3cn[nH]c23)CC2(CCC2)C1 [Compound P-0012, 2-(5-chloro-1H-indazol-7-yl)spiro[3.3]heptan-2-ol] | – | – | 0.0001 to 10 | 0.0001 to 10 | > 10 | 0.0001 to 10
12 | OC(c1c(F)c(Cl)cc2cn[nH]c12)C(F)(F)C1(O)CCC1 (centres unmarked) [Compound P-0290, 1-(2-(5-chloro-6-fluoro-1H-indazol-7-yl)-1,1-difluoro-2-hydroxyethyl)cyclobutan-1-ol] | – | – | 0.0001 to 10 | 0.0001 to 10 | 0.0001 to 10 | 0.0001 to 10
13 | CC(C)C(=O)N1CCC(C(F)(F)C(O)c2c(F)c(Cl)cc3cn[nH]c23)CC1 (centres unmarked) [Compound P-0377, 1-(4-(2-(5-chloro-6-fluoro-1H-indazol-7-yl)-1,1-difluoro-2-hydroxyethyl)piperidin-1-yl)-2-methylpropan-1-one] | – | – | 0.0001 to 10 | 0.0001 to 10 | 0.0001 to 10 | 0.0001 to 10
14 | CC(C)(C1CCN(C(=O)C2C(C)(C)C2(C)C)CC1)C(O)c1cc(Cl)cc2cn[nH]c12 (centres unmarked) [Compound P-0474, (4-(1-(5-chloro-1H-indazol-7-yl)-1-hydroxy-2-methylpropan-2-yl)piperidin-1-yl)(2,2,3,3-tetramethylcyclopropyl) methanone] | 0.0001 to 10 | 0.0001 to 10 | 0.0001 to 10 | 0.0001 to 10 | – | –
15 | CS(=O)(=O)N1CCC(C(O)c2cc(Cl)cc3cn[nH]c23)CC1 (centres unmarked) [Compound P-0283, (5-chloro-1H-indazol-7-yl)(1-(methylsulfonyl)piperidin-4-yl)methanol] | – | – | 0.0001 to 10 | 0.0001 to 10 | > 10 | 0.0001 to 10
16 | CC(C)(C1CCN(C(=O)Nc2ccccc2Cl)CC1)C(O)c1cc(Cl)cc2cn[nH]c12 (centres unmarked) [Compound P-0184, 4-(1-(5-chloro-1H-indazol-7-yl)-1-hydroxy-2-methylpropan-2-yl)-N-(2-chlorophenyl)piperidine-1-carboxamide] | – | – | 0.0001 to 10 | 0.0001 to 10 | 0.0001 to 10 | 0.0001 to 10
17 | CC1(C(O)c2cc(Cl)cc3[nH]ncc23)CCCCC1 (centres unmarked) [Compound P-0145, (6-chloro-1H-indazol-4-yl)(1-methylcyclohexyl)methanol] | – | – | 0.0001 to 10 | 0.0001 to 10 | > 10 | 0.0001 to 10
18 | CC(C)(C1CCN(C(=O)Nc2ccc(C#N)nc2)CC1)C(O)c1cc(Cl)cc2cn[nH]c12 (centres unmarked) [Compound P-0570, 4-(1-(5-chloro-1H-indazol-7-yl)-1-hydroxy-2-methylpropan-2-yl)-N-(6-cyanopyridin-3-yl)piperidine-1-carboxamide] | 0.0001 to 10 | 0.0001 to 10 | 0.0001 to 10 | 0.0001 to 10 | – | –
19 | CS(=O)(=O)N1C[C@H]2CC[C@@H](C1)[C@H]2C(F)(F)C(O)c1cc(Cl)cc2cn[nH]c12 (stereo partly drawn) [Compound P-0131, 1-(5-chloro-1H-indazol-7-yl)-2,2-difluoro-2-((1R,5S,8s)-3-(methylsulfonyl)-3-azabicyclo[3.2.l]octan-8-yl)ethan-l-ol] | – | – | 0.0001 to 10 | 0.0001 to 10 | 0.0001 to 10 | 0.0001 to 10
20 | Cc1ccc2cn[nH]c2c1C(O)C12CC3CC(CC(C3)C1)C2 (centres unmarked) [Compound P-0037, ((ls,3s)-adamantan-1-yl)(6-methyl-1H-indazol-7-yl)methanol] | – | – | 0.0001 to 10 | 0.0001 to 10 | 0.0001 to 10 | > 10
21 | O=C(Cc1ccc(Cl)cc1)N1CCC(C(F)(F)C(O)c2cc(Cl)cc3cn[nH]c23)CC1 (centres unmarked) [Compound P-0494, 1-(4-(2-(5-chloro-1H-indazol-7-yl)-1,1-difluoro-2-hydroxyethyl)piperidin-1-yl)-2-(4-chlorophenyl)ethan-1-one] | 0.0001 to 10 | 0.0001 to 10 | 0.0001 to 10 | 0.0001 to 10 | – | –
22 | CC(C)(C1CCN(C(=O)c2ccccn2)CC1)C(O)c1cc(Cl)cc2cn[nH]c12 (centres unmarked) [Compound P-0365, (4-(1-(5-chloro-1H-indazol-7-yl)-1-hydroxy-2-methylpropan-2-yl)piperidin-1-yl)(pyridin-2-yl)methanone] | – | – | 0.0001 to 10 | 0.0001 to 10 | 0.0001 to 10 | 0.0001 to 10
23 | CC1(C(O)c2c3c(cc4cn[nH]c24)CCC3)CCCCC1 (centres unmarked) [Compound P-0099, (1-methylcyclohexyl)(1,5,6,7-tetrahydrocyclopenta[f]indazol-8-yl)methanol] | – | – | 0.0001 to 10 | 0.0001 to 10 | 0.0001 to 10 | 0.0001 to 10
24 | OC(c1cc(Cl)cc2[nH]ncc12)C12CCC(CC1)CC2 (centres unmarked) [Compound P-0146, bicyclo[2.2.2]octan-1-yl(6-chloro-1H-indazol-4-yl)methanol] | – | – | 0.0001 to 10 | 0.0001 to 10 | > 10 | 0.0001 to 10
25 | O=C(Cc1ccc(Cl)c(F)c1)N1CCC(C(F)(F)C(O)c2cc(Cl)cc3cn[nH]c23)CC1 (centres unmarked) [Compound P-0523, 1-(4-(2-(5-chloro-1H-indazol-7-yl)-1,1-difluoro-2-hydroxyethyl)piperidin-1-yl)-2-(4-chloro-3-fluorophenyl)ethan-1-one] | 0.0001 to 10 | 0.0001 to 10 | 0.0001 to 10 | 0.0001 to 10 | – | –
26 | CC(C)(C1CCN(C(N)=O)CC1)C(O)c1cc(Cl)cc2cn[nH]c12 (centres unmarked) [Compound P-0325, 4-(1-(5-chloro-1H-indazol-7-yl)-1-hydroxy-2-methylpropan-2-yl)piperidine-1-carboxamide] | – | – | 0.0001 to 10 | 0.0001 to 10 | 0.0001 to 10 | 0.0001 to 10
